A short description of data set [1]: Stability assay in rat liver microsomes. It is filed as in vitro ADME. The settings on record: pH 7.4; rat liver microsomes, 30 min incubation, NADPH-regenerating system, 10 μM; read-out: Metabolic Stability (percentage of recovery of the parent compound). The procedure:
To evaluate the susceptibility to first-pass oxidative metabolism, the leading cause of metabolic degradation in vivo [17] the target compounds were incubated with rat liver microsomes. The turnover of the parent compound was assessed as the percentage of the parent compound recovered after 30 min of incubation with microsomes in the presence of an NADPH-regenerating system.
Test compounds were pre-incubated at 37 °C with rat liver microsomes (Tebu-Bio, Milan, Italy) (1.0 mg/mL microsomal protein) at 10 μM final concentration in 100 mM potassium phosphate buffer (pH 7.4) for 10 min. Metabolic reactions were initiated by the addition of the NADPH regenerating system (containing 10 mM NADP, 50 mM glucose-6-phosphate, and 10 unit/mL glucose-6-phosphate dehydrogenase, final glucose-6-phosphate dehydrogenase concentration, 1 unit/mL). After 30 min incubation, the reaction mixture was quenched by adding an equal volume of cold acetonitrile containing the internal standard. A test compound incubated with microsomes without NADPH regenerating system was included. Quenched samples were centrifuged at 4500 rpm for 15 min and the supernatants were injected for quantification analysis. Samples (100 μL) were analyzed by using an Agilent 1260 Infinity Binary LC System equipped with a diode array detector (Open Lab software was used to analyze the chromatographic data) and a Phenomenex Gemini C-18 column (250 mm × 4.6 mm, 5 μm particle size). The samples were eluted using CH3CN/20 mM ammonium formate pH 5.5 (7:3, v/v) as eluent (volumetric flow rate =1 mL/min). Concentrations were quantified by measuring the area under the peak.
The percentage of the parent compound remaining after a 30-min incubation was calculated according to the equation:% of parent compound remaining after 30 min = Cparent/Ccontrol × 100(1) where Cparent is ligand concentration after incubation with microsome fraction and NADPH regenerating system and Ccontrol is ligand concentration after incubation with microsome fraction only.

The next data set addresses dopamine D3 receptor (Homo sapiens, UniProt P35462). As to the kind of experiment: Dopamine D3 receptor competition binding ([3H]spiperone).
The next data set has as its target T1, dopamine D5 receptor (Homo sapiens, UniProt P21918).
T1 construct: expressed in transfected cells
As to the kind of experiment: Dopamine D5 receptor competition binding ([3H]-SCH23390). The settings on record: HEK-293 membranes, [3H]-SCH23390 0.3 nM, mean (CI 95%), read-out: Affinity Ki D5. The procedure:
(§1) The final compounds were tested for their affinity at serotonin 5-HT1A, 5-HT2A, and 5-HT7 receptors and at dopamine D1, D2, D3, and D5 receptors. As a first step, competition radioligand binding assays were carried out for all the compounds at the single concentration of 10 µM, on membrane preparations from stable cell lines heterologously expressing the human cloned 5-HT1A, 5-HT2A, or 5-HT7 receptors. […] For the affinity determination at dopamine receptor subtypes, membrane fractions of human dopamine D2s, D3, D1, and D5 receptor-expressing cells were used. They were co-incubated with [^3H]spiperone (for D2s and D3 receptor) or [^3H]SCH23390 (for D1 and D5 receptor) and appropriate concentrations of test compound for 120 min. Bound radioligand was separated from the free ligand using filtration. Radioactivity was measured by liquid scintillation counting.
(§2) The affinity for dopamine D1 and D5 receptors was evaluated in membrane fractions of HEK-293 cells stably expressing the human dopamine D1 or D5 receptor. HEK-293-D1 cells were cultured in DMEM/F12 (15 mM HEPES, 1.2 g/L NaHCO3) with 10% (v/v) FBS and 1% (v/v) L-glutamine. HEK-293-D5 cells were cultured in DMEM/F12 (with L-glutamine, 1.2 g/L NaHCO3) with 20% (v/v) FBS. Preparation of membrane fractions and radioligand competition assays were performed as previously described. Briefly, membrane fractions were co-incubated with [^3H]-SCH23390 (0.3 nM) and different concentrations of test compound for 120 min at room temperature. Fluphenazine (100 µM) was used to determine non-specific binding and as reference compound.
(§3) Data of at least three independent experiments in triplicate were analyzed using GraphPad Prism 8.1 (San Diego, CA, USA). Binding curves were fitted to a non-linear regression model (one-site competition). Ki values were calculated from IC50 values using the Cheng–Prusoff equation. The statistical calculations were performed on –log(Ki).

For data set [2], the target named is T2, serotonin 5-HT2A receptor (Homo sapiens, UniProt P28223).
T2 construct: expressed in transfected cells
The experiment in a line: 5-HT2A receptor radioligand competition binding ([3H]-ketanserin). The settings on record: human cloned receptor, CHO-K1 membranes, 1 nM [3H]-ketanserin; ± S.E.M., n = 3 in duplicate; read-out: Affinity Ki 5-HT2A.

For data set [3], the target named is T3, serotonin 5-HT7 receptor (5-HT7A) (Homo sapiens, UniProt P34969).
T3 construct: expressed in transfected cells
The experiment in a line: 5-HT7 receptor radioligand competition binding ([3H]-SB269970). The settings on record: human cloned 5-HT7A receptor, HEK293 membranes, 2 nM [3H]-SB269970; ± S.E.M., n = 3 in duplicate; read-out: Affinity Ki 5-HT7. On the procedure:
as §1, with “As” for “The final compounds were tested for their affinity at serotonin 5-HT1A, 5-HT2A, and 5-HT7 receptors and at dopamine D1, D2, D3, and D5 receptors. As”
The affinity of the compounds for serotonin 5-HT7 receptor was evaluated in membrane preparations from HEK293 cells stably expressing the human cloned 5-HT7A receptor, following previously described procedures with minor modifications. Competition binding experiments were performed using 2 nM [^3H]-SB269970 (34.5 Ci/mmol, 0.25 mCi/mL, Perkin Elmer NET1198U250UC) as radioligand. […] Methiothepine was included in the assays as reference compound. Assays were carried out in duplicate in 96-well assay plates, in assay buffer (50 mM Tris-HCl, 4 mM MgCl2, 1 mM ascorbic acid, 0.1 mM pargyline, pH = 7.4). Assay mixtures were incubated at 37 °C for 60 min, followed by filtration through GF/C glass filter plates, and washing with ice-cold assay buffer. Affinity (equilibrium dissociation constant, Ki) of the compounds was calculated from competition binding curves as indicated above.
(In a radioligand displacement assay an active substance lowers the binding of a labelled ligand.)

For data set [4], the target named is T4, serotonin 5-HT1A receptor (Homo sapiens, UniProt P08908).
T4 construct: expressed in transfected cells
T4 sequence (P08908 1-422): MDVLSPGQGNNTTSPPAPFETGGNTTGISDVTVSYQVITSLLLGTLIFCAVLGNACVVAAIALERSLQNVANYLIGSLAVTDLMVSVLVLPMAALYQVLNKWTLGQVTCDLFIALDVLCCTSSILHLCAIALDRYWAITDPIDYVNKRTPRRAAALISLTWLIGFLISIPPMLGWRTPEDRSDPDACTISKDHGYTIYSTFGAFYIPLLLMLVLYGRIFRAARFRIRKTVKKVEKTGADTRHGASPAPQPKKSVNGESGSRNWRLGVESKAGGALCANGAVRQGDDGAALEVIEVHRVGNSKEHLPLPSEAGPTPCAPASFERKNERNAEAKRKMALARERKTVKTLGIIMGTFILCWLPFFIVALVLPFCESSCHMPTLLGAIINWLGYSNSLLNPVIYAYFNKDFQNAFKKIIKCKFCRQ
As to the kind of experiment: 5-HT1A receptor radioligand competition binding ([3H]-8-Hydroxy-DPAT). The settings on record: human cloned receptor, HEK293 membranes, 1 nM [3H]-8-Hydroxy-DPAT; ± S.E.M., n = 3 in duplicate; read-out: Affinity Ki 5-HT1A. On the procedure: as §1, with “As” for “The final compounds were tested for their affinity at serotonin 5-HT1A, 5-HT2A, and 5-HT7 receptors and at dopamine D1, D2, D3, and D5 receptors. As”
The affinity of the compounds for serotonin 5-HT1A receptor was evaluated in membrane preparations from HEK293 cells stably expressing the human cloned receptor, following previously described procedures with minor modifications. Competition binding experiments were performed using 1 nM [^3H]-8-Hydroxy-DPAT (1 mCi/mL, PerkinElmer NET929250UC) as radioligand. Nonspecific binding was assessed in the presence of 10 µM serotonin. […] Assays were carried out in duplicate in 96-well assay plates, in assay buffer (50 mM Tris-HCl, 5 mM MgSO4, pH = 7.4). Assay mixtures were incubated at 37 °C for 120 min, followed by filtration through GF/C glass filter plates, and washed with ice-cold wash buffer (50 mM Tris-HCl, pH = 7.4).

A further data set concerns the target T5, dopamine D1 receptor (Homo sapiens, UniProt P21728).
T5 construct: expressed in transfected cells
As to the kind of experiment: Dopamine D1 receptor competition binding ([3H]-SCH23390). The settings on record: HEK-293 membranes, [3H]-SCH23390 0.3 nM, mean (CI 95%), read-out: Affinity Ki D1. On the procedure: as §1, §2, §3

A further data set has as its target dopamine D2s receptor (Homo sapiens, UniProt P14416). The experiment in a line: Dopamine D2s receptor competition binding ([3H]spiperone).

Some results are limits rather than exact numbers.

Chain of dopamine D3 receptor (P35462 whole entry): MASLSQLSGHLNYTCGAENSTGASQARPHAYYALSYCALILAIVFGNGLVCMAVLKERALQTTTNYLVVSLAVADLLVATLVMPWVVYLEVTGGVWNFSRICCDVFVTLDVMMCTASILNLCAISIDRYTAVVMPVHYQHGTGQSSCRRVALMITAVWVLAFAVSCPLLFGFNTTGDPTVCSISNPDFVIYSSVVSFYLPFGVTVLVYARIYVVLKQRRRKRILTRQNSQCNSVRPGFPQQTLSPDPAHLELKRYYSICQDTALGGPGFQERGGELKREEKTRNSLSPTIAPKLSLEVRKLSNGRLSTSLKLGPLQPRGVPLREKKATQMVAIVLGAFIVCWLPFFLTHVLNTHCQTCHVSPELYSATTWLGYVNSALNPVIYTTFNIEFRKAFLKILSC
Chain of dopamine D2s receptor (P14416 1-414 isoform P14416-2): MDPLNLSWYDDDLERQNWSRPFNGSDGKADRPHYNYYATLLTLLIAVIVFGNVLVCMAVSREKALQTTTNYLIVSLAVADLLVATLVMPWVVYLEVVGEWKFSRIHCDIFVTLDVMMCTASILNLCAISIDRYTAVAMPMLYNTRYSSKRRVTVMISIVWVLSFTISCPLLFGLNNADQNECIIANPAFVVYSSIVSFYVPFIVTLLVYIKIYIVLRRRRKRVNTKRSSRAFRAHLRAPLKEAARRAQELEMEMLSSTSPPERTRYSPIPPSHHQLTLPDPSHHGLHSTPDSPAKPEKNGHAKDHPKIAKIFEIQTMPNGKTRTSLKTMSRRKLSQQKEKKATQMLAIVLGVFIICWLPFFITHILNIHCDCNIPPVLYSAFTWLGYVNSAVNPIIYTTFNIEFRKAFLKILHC
T1 sequence (P21918 whole entry): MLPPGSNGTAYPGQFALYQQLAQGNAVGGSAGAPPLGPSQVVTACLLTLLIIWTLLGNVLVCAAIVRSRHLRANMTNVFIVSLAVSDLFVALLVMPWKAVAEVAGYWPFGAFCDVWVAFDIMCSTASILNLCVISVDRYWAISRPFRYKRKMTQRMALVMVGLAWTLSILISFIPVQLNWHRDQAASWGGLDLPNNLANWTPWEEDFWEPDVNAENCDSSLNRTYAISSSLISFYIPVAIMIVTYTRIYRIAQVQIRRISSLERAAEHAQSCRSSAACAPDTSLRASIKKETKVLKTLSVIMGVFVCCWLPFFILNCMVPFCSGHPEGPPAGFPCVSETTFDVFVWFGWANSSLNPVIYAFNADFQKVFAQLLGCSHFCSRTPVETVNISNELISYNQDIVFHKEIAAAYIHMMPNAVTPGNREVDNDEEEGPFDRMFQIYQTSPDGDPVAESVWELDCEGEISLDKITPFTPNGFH
T2 sequence (P28223 whole entry): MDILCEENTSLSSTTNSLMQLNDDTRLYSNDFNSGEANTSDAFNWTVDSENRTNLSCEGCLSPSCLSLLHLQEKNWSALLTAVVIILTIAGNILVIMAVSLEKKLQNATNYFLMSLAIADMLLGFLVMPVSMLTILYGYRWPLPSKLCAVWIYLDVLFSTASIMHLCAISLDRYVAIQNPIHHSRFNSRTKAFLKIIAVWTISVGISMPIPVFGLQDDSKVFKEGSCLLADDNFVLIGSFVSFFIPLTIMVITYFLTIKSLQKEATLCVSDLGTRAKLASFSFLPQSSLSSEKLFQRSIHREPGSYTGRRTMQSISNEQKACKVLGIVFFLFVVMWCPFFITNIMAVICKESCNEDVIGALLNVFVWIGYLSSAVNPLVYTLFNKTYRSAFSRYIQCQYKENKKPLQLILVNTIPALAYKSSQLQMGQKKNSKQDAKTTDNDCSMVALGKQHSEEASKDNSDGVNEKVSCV
T3 sequence (P34969 1-445 isoform P34969-2): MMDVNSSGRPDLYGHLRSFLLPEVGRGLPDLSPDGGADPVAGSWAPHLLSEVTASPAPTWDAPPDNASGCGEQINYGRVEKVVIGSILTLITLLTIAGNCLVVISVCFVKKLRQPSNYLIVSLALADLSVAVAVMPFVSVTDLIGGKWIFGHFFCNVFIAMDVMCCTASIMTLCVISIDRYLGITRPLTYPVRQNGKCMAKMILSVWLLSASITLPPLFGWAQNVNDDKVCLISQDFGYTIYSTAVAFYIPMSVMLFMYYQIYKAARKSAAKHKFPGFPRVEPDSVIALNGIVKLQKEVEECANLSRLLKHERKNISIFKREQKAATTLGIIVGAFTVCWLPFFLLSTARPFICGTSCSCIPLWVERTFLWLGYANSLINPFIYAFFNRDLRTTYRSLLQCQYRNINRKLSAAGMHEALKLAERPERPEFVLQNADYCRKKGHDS
T5 sequence (P21728 whole entry): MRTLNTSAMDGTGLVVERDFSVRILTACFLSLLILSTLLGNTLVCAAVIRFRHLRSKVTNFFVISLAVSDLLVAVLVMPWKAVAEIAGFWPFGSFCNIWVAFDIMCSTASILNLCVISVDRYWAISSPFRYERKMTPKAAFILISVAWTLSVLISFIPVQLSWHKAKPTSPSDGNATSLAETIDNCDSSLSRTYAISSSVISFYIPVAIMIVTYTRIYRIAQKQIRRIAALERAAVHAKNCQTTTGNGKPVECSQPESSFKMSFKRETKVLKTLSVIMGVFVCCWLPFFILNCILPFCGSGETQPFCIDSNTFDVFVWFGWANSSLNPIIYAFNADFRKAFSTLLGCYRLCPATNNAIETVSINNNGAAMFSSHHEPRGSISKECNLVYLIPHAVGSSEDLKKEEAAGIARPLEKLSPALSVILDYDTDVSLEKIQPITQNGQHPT
Experimental for dopamine D2s receptor: (§4) Competition binding experiments at dopamine D2s and D3 receptor were performed to determine the affinity of the compounds. […] Membrane preparations of transfected CHO-K1 cells stably expressing the human D2s or D3 receptor were performed according to Bautista-Aguilera et al. [26]. The competition binding experiments were conducted as previously reported [26, 27]. Briefly, membrane fractions (D2sR: 25 µg/200 µL; D3R: 20 µg/200 µL) were incubated with [^3H]spiperone (0.2 nM) and test compound for 120 min at room temperature. […] Non-specific binding was determined in the presence of 10 µM haloperidol. Haloperidol was also used as reference compound. Separation of the bound ligand from the free ligand was conducted by filtration through GF/B filters using deionized water.
Experimental for dopamine D3 receptor: as §4

The term Ki denotes the equilibrium dissociation constant of an inhibitor or competing ligand from its target. For `COc1ccc(-c2cc(F)ccc2N2CCN(CCCn3ncc(=O)n(C)c3=O)CC2)cc1` [Compound 9a, 2-(3-(4-(5-Fluoro-4’-methoxy-[1,1’-biphenyl]-2-yl)piperazin-1-yl)propyl)-4-methyl-1,2,4-triazine-3,5(2H,4H)-dione], the remaining at 30 min, 10 μM in data set [1] was less than 3%. Moreover, the inhibition constant (Ki) on dopamine D3 receptor was more than 10000 nM; at dopamine D5 receptor it was 413 nM; in data set [2] it was 49.1 ± 12 nM; in data set [3], 60.8 ± 7.1 nM; in data set [4] it was 653 ± 95 nM; on dopamine D1 receptor it was 193 nM. This compound also had a Ki on dopamine D2s receptor of more than 10000 nM.
